The values below come from paper PMC8286840, “Identifying SARS-CoV-2 antiviral compounds by screening for small molecule inhibitors of Nsp3 papain-like protease” (Biochemical Journal, 2021).

Structures are written as SMILES. Structures can show the parent of a compound that is named as a salt. Where two headings read alike, the source gives them in different places.

Experiment [1] has as its target T1, SARS-CoV-2 PLpro (nsp3 1564–1878) (Severe acute respiratory syndrome coronavirus 2, UniProt P0DTD1). The experiment is described as follows: biochemical. Set-up: FRET-quenched peptide (Pro3) cleavage by PLpro, 10 min pre-incubation, slope over 20 min, normalised to no-compound control. As to conditions: low concentration screen, read-out: % of control remaining.

The target in experiment [2] is T1, SARS-CoV-2 PLpro (nsp3 1564–1878). As to the kind of experiment: biochemical. Set-up: FRET-quenched peptide (Pro3) cleavage by PLpro, 10 min pre-incubation, slope over 20 min, normalised to no-compound control. As to conditions: high concentration screen, read-out: % of control remaining.

Consider `N=C(N)NC(=O)c1nc(Cl)c(N)nc1N` [Amiloride hydrochloride], for which, in experiment [1] (Well no.=148), the remaining activity at 1.25 µM is 96.9%. In experiment [2] (Well no.=148), the remaining activity at 3.75 µM was determined as 94.6%.

Take `N=C(N)NC(=O)c1nc(Cl)c(N)nc1N` [Amiloride]: the remaining activity at 1.25 µM in experiment [1] (Well no.=1709) stood at 102%. The remaining activity at 3.75 µM in experiment [2] (Well no.=1709) was found to be 99%.

As to `CN1[C@@H]2CC[C@H]1C[C@@H](OC(c1ccccc1)c1ccccc1N)C2` (stereo partly shown) [Aminobenztropine], in experiment [1] (Well no.=206), the remaining activity at 1.25 µM was found to be 97.2%. The remaining activity at 3.75 µM in experiment [2] (Well no.=206) was 98.3%.

Regarding `NN=C(N)N` [Aminoguanidine hemisulfate], the remaining activity at 1.25 µM in experiment [1] (Well no.=213) came to 95.8%. Also, in experiment [2] (Well no.=213), the remaining activity at 3.75 µM came to 96.8%.

Turning to `N=C(N)NN` [Aminoguanidine hydrochloride], the remaining activity at 1.25 µM in experiment [1] (Well no.=104) is 93%. Further, the remaining activity at 3.75 µM in experiment [2] (Well no.=104) was found to be 94.6%.

For the compound `Cn1c(=O)c2[nH]cnc2n(C)c1=O` [Aminophylline], the remaining activity at 1.25 µM in experiment [1] (Well no.=1542) worked out at 101%. The remaining activity at 3.75 µM in experiment [2] (Well no.=1542) worked out at 103%.

For the compound `Nc1nc(N)c2nc(CNc3ccc(C(=O)N[C@@H](CCC(=O)O)C(=O)O)cc3)cnc2n1` [Aminopterin], the remaining activity at 1.25 µM in experiment [1] (Well no.=153) was determined as 101%. Also, the remaining activity at 3.75 µM in experiment [2] (Well no.=153) is 104%.

`CC(C)[C@H](CO)Nc1nc(Nc2cc(N)cc(Cl)c2)c2ncn(C(C)C)c2n1` [Aminopurvalanol A - (2R)-2-[[6-[(3-Amino-5-chlorophenyl)amino]-9-(1-methylethyl)-9H-purin-2-yl]amino]-3-methyl-1-butanol]: the remaining activity at 1.25 µM in experiment [1] (Well no.=2484) was determined as 101%. Besides, the remaining activity at 3.75 µM in experiment [2] (Well no.=2484) stood at 108%.

On to `CC(C)[C@H](CO)Nc1nc(Nc2cc(N)cc(Cl)c2)c2ncn(C(C)C)c2n1` [Aminopurvalanol A], for which, in experiment [1] (Well no.=2322), the remaining activity at 1.25 µM was 97.1%. The remaining activity at 3.75 µM in experiment [2] (Well no.=2322) is 97.4%.

Turning to `CCCCc1oc2ccccc2c1C(=O)c1cc(I)c(OCCN(CC)CC)c(I)c1` [Amiodarone hydrochloride], in experiment [1] (Well no.=198), the remaining activity at 1.25 µM was 97%. Moreover, the remaining activity at 3.75 µM in experiment [2] (Well no.=198) was 98.7%.

`CCCCc1oc2ccccc2c1C(=O)c1cc(I)c(OCCN(CC)CC)c(I)c1` [Amiodarone.HCl]: the remaining activity at 1.25 µM in experiment [1] (Well no.=1591) stood at 104%. For the same compound, the remaining activity at 3.75 µM in experiment [2] (Well no.=1591) is 103%.

For the compound `CN(C)CCCO[C@@H]1[C@H]2OC(C)(C)O[C@H]2O[C@@H]1[C@H](O)CO` [Amiprilose hydrochloride], the remaining activity at 1.25 µM in experiment [1] (Well no.=207) was found to be 101%. Moreover, the remaining activity at 3.75 µM in experiment [2] (Well no.=207) amounted to 103%.

Consider `CCN1CCCC1CNC(=O)c1cc(S(=O)(=O)CC)c(N)cc1OC` (stereo not shown) [Amisulpride], for which the values for the remaining activity at 1.25 µM in experiment [1] (Well no.=2275) and in experiment [1] (Well no.=8149) were 93.3% and 107%, respectively. Further, the remaining activity at 3.75 µM in experiment [2] (Well no.=2275) worked out at 97.7%; in experiment [2] (Well no.=8149), 107%.

For `CN(C)CCC=C1c2ccccc2CCc2ccccc21` [Amitriptyline hydrochloride], in experiment [1] (Well no.=150), the remaining activity at 1.25 µM amounted to 103%. For the same compound, the remaining activity at 3.75 µM in experiment [2] (Well no.=150) was found to be 98.5%.

In the case of `CN(C)CCC=C1c2ccccc2CCc2ccccc21` [Amitriptyline.HCl], the remaining activity at 1.25 µM in experiment [1] (Well no.=2122) is 102%. Also, the remaining activity at 3.75 µM in experiment [2] (Well no.=2122) was found to be 104%.

As for `CCOC(=O)C1=C(COCCN)NC(C)=C(C(=O)OC)C1c1ccccc1Cl` (stereo not shown) [Amlodipine], the remaining activity at 1.25 µM in experiment [1] (Well no.=1711) was 99.1%. Further, the remaining activity at 3.75 µM in experiment [2] (Well no.=1711) was 99%.

With `CC1(C)[C@@H](O[C@H]2O[C@H](C(=O)O)[C@@H](O)[C@H](O)[C@H]2O[C@@H]2O[C@H](C(=O)O)[C@@H](O)[C@H](O)[C@H]2O)CC[C@]2(C)[C@H]3C(=O)C=C4[C@@H]5C[C@@](C)(C(=O)O)CC[C@]5(C)CC[C@@]4(C)[C@]3(C)CC[C@@H]12` [Ammonium Glycyrrhizinate], the remaining activity at 1.25 µM in experiment [1] (Well no.=8386) was 97.7%. In addition, in experiment [2] (Well no.=8386), the remaining activity at 3.75 µM was determined as 99%.

In the case of `S=C(S)N1CCCC1` [Ammonium pyrrolidinedithiocarbamate], the remaining activity at 1.25 µM in experiment [1] (Well no.=1495) is 102%. In experiment [2] (Well no.=1495), the remaining activity at 3.75 µM worked out at 97.9%.

On to `CCN(CC)Cc1cc(Nc2ccnc3cc(Cl)ccc23)ccc1O` [Amodiaquine dihydrochloride dihydrate], for which, in experiment [1] (Well no.=8396), the remaining activity at 1.25 µM is 97.5%. In addition, the remaining activity at 3.75 µM in experiment [2] (Well no.=8396) was determined as 106%.

Consider `CN(C)CCN1C(=O)c2cccc3cc(N)cc(c23)C1=O` [Amonafide], for which, in experiment [1] (Well no.=5195), the remaining activity at 1.25 µM was determined as 96.9%. Also, the remaining activity at 3.75 µM in experiment [2] (Well no.=5195) was 96.7%.

As to `CCC(C)(C)c1ccc(CC(C)CN2C[C@@H](C)O[C@@H](C)C2)cc1` (stereo partly shown) [Amorolfine HCl], in experiment [1] (Well no.=5337), the remaining activity at 1.25 µM was 98.1%. Also, in experiment [2] (Well no.=5337), the remaining activity at 3.75 µM stood at 98.1%.

In the case of `CCC(C)(C)c1ccc(CC(C)CN2C[C@@H](C)O[C@@H](C)C2)cc1` (stereo partly shown) [Amorolfine], in experiment [1] (Well no.=1748), the remaining activity at 1.25 µM was 99%. Also, the remaining activity at 3.75 µM in experiment [2] (Well no.=1748) came to 101%.

As for `Clc1ccc2c(c1)C(N1CCNCC1)=Nc1ccccc1O2` [Amoxapine], the remaining activity at 1.25 µM in experiment [1] (Well no.=158) was determined as 97.7%; in experiment [1] (Well no.=1690), 102%. Besides, the remaining activity at 3.75 µM in experiment [2] (Well no.=158) came out at 97.1%; in experiment [2] (Well no.=1690), 103%.

Regarding `CC1(C)S[C@@H]2[C@H](NC(=O)[C@H](N)c3ccc(O)cc3)C(=O)N2[C@H]1C(=O)O` [Amoxicillin (sodium)], the remaining activity at 1.25 µM in experiment [1] (Well no.=8274) was determined as 91.5%. Further, the remaining activity at 3.75 µM in experiment [2] (Well no.=8274) stood at 89.9%.

For the compound `CC1(C)S[C@@H]2[C@H](NC(=O)[C@H](N)c3ccc(O)cc3)C(=O)N2[C@H]1C(=O)O` [Amoxicillin (trihydrate)], the remaining activity at 1.25 µM in experiment [1] (Well no.=8222) turned out to be 99.5%. Moreover, the remaining activity at 3.75 µM in experiment [2] (Well no.=8222) came out at 96.8%.

Regarding `CC1(C)S[C@@H]2[C@H](NC(=O)[C@H](N)c3ccc(O)cc3)C(=O)N2[C@H]1C(=O)O` [Amoxicillin], the remaining activity at 1.25 µM in experiment [1] (Well no.=2000) turned out to be 98.8%; in experiment [1] (Well no.=7654), 97%. Further, the values for the remaining activity at 3.75 µM in experiment [2] (Well no.=2000) and in experiment [2] (Well no.=7654) were 100% and 97.6%, respectively.

Consider `CCNC(=O)N1CCN(CCCC(c2ccc(F)cc2)c2ccc(F)cc2)CC1` [Amperozide hydrochloride], for which the remaining activity at 1.25 µM in experiment [1] (Well no.=165) is 92.6%. In addition, the remaining activity at 3.75 µM in experiment [2] (Well no.=165) came to 96.4%.

Take `C[C@@H]1[C@H](O)[C@@H](C)/C=C/C=C/C=C/C=C/C=C/C=C/C=C/[C@H](O[C@@H]2O[C@H](C)[C@@H](O)[C@H](N)[C@@H]2O)C[C@@H]2O[C@](O)(C[C@@H](O)C[C@@H](O)[C@H](O)CC[C@@H](O)C[C@@H](O)CC(=O)O[C@H]1C)C[C@H](O)[C@H]2C(=O)O` [Amphotericin B]: the remaining activity at 1.25 µM in experiment [1] (Well no.=3470) is 101%. Moreover, in experiment [2] (Well no.=3470), the remaining activity at 3.75 µM turned out to be 98.9%.

Take `CC1(C)S[C@@H]2[C@H](NC(=O)[C@H](N)c3ccccc3)C(=O)N2[C@H]1C(=O)O` [Ampicillin (sodium)]: the remaining activity at 1.25 µM in experiment [1] (Well no.=8708) worked out at 101%. In experiment [2] (Well no.=8708), the remaining activity at 3.75 µM turned out to be 101%.
